Data published in patent US11639343B2, “Compounds targeting and degrading BCR-ABL protein and its antitumor application” (ShanghaiTech University, priority 2019, dated 2023).

Tests used:
[1] = Body weight and toxicity in the K562 transplanted mouse model; type: in vivo; details: NOD-SCID mice, during the experiment period
Source text: (§1) (2) BCR-ABL+K562 cell transplanted mouse model: 5*106 k562 Luc cells were inoculated into the subcutaneous of immunodeficient NOD-SCID mice. After 2 weeks, the tumor volume of mice was nearly 200 mm^3. The mice were randomly divided into 5 groups. […] At the same time, the mice were imaged in vivo to observe the tumor-bearing condition. Then stop the administration and observe the recurrence of the tumor.

[2] = system: BCR-ABL-G250E/V299L/F317L/F317V; assay: Western blot degradation of BCR-ABL drug resistance mutants in U937 cells; type: cell-based, human; details: U937 cells stably expressing mutants, 24 hours, 10 nM-10 μM
Description: (1) Establishment of stable BCR-ABL mutant: the target fragment of BCR-ABL was cloned into retroviral vector pmigrl, and then PMIGR1-BCR-ABL-G250E/E255K/V299L/F317L/F317V/T315I/T315A and other mutant forms were obtained by using Stratagene-QuikChange® Site-Directed Mutagenesis Kit. Finally, the cell lines stably expressing BCR-ABL wild type and mutant were established on U937 cells by retrovirus infection system.
(1) Cell seed: Established cells are added to the 24 well plates, with a cell density of 3×10^5/ml and a total volume of 1.5 ml; Four concentration gradients, 10 nm, 100 nm, 1 μM, and 10 μM, are respectively set for PROTAD series compounds. […] After 24 hours of drug treatment, the cells were collected in 1.5 ml ep tube, centrifuged at 3000 rpm for 3 minutes, and then added 30 μL PBS and 30 μL 2×SDS to cell precipitated, lysate Heat at 100° C. for 5 minutes, then placed on ice for 5 minutes, centrifuged at 10000 rpm for 5 minutes, and take the supernatant as the total protein extracted. The effect of SIAS151178 on the mutational BCR-ABL protein was detected by Western blotting.

c-ABL protein [3] = biological target: T1, c-ABL protein (Homo sapiens, UniProt P00519); assay: Degradation of c-ABL protein in vivo; parameters: from tissue; host or cells: in vivo
Source text: (§2) We further study whether PROTAD compound of the disclosure can induce BCR-ABL protein degradation in vivo. We still took the compound SIAIS151178 of Dasa-Lin-VHL system as the representative one.

BCR-ABL protein [4] = biological target: T2, BCR-ABL protein (Homo sapiens, UniProt P00519); assay: Degradation of BCR-ABL protein in vivo; parameters: BCR (fusion partner, P11274); from tissue; host or cells: in vivo; the other entry of the earlier key: BCR (P11274, Breakpoint cluster region protein)
Source text: as §2

BCR-ABL protein [5] = biological target: T2, BCR-ABL protein; assay: Western blot degradation of BCR-ABL in K562 cells; type: cell-based; parameters: Western blot was used to detect the expression of BCR-ABL and c-ABL protein in K562 cells; BCR (fusion partner, P11274); endogenous in cells; host or cells: K562; the other entry of the earlier key: BCR (P11274, Breakpoint cluster region protein); details: 16 hours, 1 nM-10 μM
Outline: (§3)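 Lysates were normalized by Bradford and run on SDS-PAGE with nitrocellulose transfer. DC50 was derived from band intensities by non-linear regression.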

[6] = system: K562 cell transplantation tumor; assay: BCR-ABL+ K562 cell transplanted tumor model in mice; type: in vivo
Source text: (1) Establishment of K562 Luc cells: the target fragment of luciferase was cloned into lentivirus vector Plenti-IRES-ZSGREEN, and a K562-Luc cell line stably expressing luciferase was established on K562 cells by using lentivirus infection system.
as §1

c-ABL protein [7] = biological target: T1, c-ABL protein; assay: Western blot degradation of c-ABL in K562 cells; type: cell-based; parameters: Western blot was used to detect the expression of BCR-ABL and c-ABL protein in K562 cells; endogenous in cells; host or cells: K562; details: 16 hours, 1 nM-10 μM
Outline: as §3

K562 (BCR-ABL+) cells = assay: CCK-8 proliferation inhibition, K562 cells; type: cell-based, human; details: Homo sapiens, K562, 48 h, CCK-8, 48 hours of drug treatment; read-out: Proliferative inhibitory activity (IC50, nM) K562 (BCR-ABL+);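 also: Ten-point threefold dilution series starting at 10 µM, absorbance at 450 nm after 2 h with CCK-8, DMSO as negative control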
BCR-ABL signal pathway = BCR-ABL signal pathway activity in vivo
Source text: as §2

[8] = system: Src protein kinase, kit, PDGFR; assay: Degradation of other tyrosine kinase receptors
HEK293 (BCR-ABL-) cells = assay: CCK-8 proliferation inhibition, HEK293 cells; details: Homo sapiens, HEK293, 48 h, read-out: Proliferative inhibitory activity (IC50, nM) HEK293 (BCR-ABL-);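 also: Ten-point threefold dilution series starting at 10 µM, CCK-8 absorbance at 450 nm read after 2 h reagent incubation, DMSO-treated cells as negative control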
U937 (BCR-ABL-) cells = assay: CCK-8 proliferation inhibition, U937 cells; type: cell-based, human; details: Homo sapiens, U-937; CCK-8, 48 hours of drug treatment, highest concentration 10 μM; read-out: Proliferative inhibitory activity (IC50, nM) U937 (BCR-ABL-);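 also: Ten-point threefold dilution series, absorbance at 450 nm after 2 h with CCK-8 reagent, DMSO as negative control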

T2 sequence (P00519 with tags, fused parts or gaps): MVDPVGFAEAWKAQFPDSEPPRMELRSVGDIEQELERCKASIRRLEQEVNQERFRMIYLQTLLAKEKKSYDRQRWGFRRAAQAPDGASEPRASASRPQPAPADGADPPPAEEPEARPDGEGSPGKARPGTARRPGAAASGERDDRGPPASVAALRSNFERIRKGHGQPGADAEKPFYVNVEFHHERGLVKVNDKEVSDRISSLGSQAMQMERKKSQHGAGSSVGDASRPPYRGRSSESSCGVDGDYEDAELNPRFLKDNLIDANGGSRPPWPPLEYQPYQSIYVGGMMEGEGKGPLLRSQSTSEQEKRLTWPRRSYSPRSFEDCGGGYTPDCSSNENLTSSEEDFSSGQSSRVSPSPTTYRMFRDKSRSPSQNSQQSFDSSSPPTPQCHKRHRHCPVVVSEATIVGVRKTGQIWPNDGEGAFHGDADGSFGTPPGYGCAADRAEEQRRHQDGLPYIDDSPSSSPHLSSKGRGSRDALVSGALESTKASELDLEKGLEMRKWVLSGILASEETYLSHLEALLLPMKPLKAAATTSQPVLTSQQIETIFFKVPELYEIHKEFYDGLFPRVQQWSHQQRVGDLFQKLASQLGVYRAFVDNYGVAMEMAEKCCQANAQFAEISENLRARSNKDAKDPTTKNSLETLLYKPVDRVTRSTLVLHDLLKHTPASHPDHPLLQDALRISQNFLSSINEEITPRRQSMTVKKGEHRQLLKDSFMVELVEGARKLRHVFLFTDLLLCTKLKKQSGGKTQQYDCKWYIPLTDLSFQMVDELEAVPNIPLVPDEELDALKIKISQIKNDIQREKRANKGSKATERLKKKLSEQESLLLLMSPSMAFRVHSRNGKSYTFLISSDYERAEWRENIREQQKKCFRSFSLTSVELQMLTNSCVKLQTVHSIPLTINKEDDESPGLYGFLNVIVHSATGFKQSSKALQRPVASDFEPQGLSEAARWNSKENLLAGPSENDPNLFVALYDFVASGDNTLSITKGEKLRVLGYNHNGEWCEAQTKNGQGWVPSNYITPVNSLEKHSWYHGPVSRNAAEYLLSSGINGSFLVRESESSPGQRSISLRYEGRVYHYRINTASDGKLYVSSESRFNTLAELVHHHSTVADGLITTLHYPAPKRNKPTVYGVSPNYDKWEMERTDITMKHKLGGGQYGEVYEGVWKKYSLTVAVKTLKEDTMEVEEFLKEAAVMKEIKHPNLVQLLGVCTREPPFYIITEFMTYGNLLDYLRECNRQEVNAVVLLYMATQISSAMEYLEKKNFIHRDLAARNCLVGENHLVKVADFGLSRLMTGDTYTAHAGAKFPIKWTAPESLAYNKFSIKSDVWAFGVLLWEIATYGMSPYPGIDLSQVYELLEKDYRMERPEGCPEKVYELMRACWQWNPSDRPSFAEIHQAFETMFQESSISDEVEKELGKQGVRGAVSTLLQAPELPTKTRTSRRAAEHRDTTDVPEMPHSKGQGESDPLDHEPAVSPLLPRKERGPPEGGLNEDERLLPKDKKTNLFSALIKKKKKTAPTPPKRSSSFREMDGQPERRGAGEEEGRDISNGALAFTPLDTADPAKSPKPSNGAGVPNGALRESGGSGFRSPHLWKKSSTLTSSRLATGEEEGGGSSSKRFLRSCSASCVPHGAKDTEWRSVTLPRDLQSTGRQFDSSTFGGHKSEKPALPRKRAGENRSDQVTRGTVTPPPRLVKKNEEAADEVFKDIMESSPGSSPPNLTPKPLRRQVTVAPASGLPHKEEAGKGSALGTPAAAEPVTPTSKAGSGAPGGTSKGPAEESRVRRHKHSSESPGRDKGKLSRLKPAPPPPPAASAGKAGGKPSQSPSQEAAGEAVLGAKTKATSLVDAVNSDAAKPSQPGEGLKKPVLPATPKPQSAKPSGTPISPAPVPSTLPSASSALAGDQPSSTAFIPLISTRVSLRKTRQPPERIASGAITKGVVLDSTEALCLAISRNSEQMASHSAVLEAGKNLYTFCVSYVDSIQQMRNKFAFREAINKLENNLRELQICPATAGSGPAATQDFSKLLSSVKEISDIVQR
T1 sequence (P00519 whole entry): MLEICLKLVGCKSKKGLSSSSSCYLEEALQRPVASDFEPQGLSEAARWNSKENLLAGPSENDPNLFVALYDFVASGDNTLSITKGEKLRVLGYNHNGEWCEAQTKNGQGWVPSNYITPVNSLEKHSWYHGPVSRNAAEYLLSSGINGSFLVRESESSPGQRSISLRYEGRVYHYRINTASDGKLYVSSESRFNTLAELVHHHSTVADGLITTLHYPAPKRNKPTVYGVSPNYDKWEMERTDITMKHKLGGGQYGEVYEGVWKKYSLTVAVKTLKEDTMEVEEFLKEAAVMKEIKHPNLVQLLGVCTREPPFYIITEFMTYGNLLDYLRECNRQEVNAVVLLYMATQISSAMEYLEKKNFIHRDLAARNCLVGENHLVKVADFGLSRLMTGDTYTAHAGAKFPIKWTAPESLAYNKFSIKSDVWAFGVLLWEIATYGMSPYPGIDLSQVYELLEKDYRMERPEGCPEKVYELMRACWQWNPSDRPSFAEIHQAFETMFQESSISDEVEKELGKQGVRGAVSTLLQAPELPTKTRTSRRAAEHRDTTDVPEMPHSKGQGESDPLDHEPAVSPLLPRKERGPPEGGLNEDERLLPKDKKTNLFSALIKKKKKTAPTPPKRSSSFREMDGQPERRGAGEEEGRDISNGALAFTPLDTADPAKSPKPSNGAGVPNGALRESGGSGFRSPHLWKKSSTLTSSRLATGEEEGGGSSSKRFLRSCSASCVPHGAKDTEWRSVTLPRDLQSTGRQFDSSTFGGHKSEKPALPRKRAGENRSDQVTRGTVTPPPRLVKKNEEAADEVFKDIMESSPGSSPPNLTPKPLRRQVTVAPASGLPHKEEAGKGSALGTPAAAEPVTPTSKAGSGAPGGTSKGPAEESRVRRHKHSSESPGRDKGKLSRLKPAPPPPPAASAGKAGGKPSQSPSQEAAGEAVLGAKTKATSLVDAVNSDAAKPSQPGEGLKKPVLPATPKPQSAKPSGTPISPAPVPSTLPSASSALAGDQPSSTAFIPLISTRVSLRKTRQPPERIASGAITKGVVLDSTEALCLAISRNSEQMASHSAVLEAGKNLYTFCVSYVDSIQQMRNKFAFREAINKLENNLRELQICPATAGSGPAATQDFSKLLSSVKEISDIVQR

Compound: Cc1nc(Nc2ncc(C(=O)Nc3c(C)cccc3Cl)s2)cc(N2CCN(C(=O)CCCCCCC(=O)N[C@H](C(=O)N3C[C@H](O)C[C@H]3C(=O)NCc3ccc(-c4scnc4C)cc3)C(C)(C)C)CC2)n1 [SIAIS151178, N-(2-chloro-6-methylphenyl)-2-((6-(4-(8-(((S)-1-((2S,4R)-4-hydroxy-2-((4-(4-methylthiazol-5-yl)benzyl)carbamoyl)pyrrolidin-1-yl)-3,3-dimethyl-1-oxobutan-2-yl)amino)-8-oxooctanoyl)piperazin-1-yl)-2-methylpyrimidin-4-yl)amino)thiazole-5-carboxamide]
- bodyweight of mice [1]: no significant effect on the bodyweight of mice
- toxic and side effects [1]: no obvious toxic and side effects were found
- degradation of BCR-ABL mutants related to clinical drug resistance [2]: can significantly degrade the mutant forms of BCR-ABL-G250E/V299L/F317L/F317V in a dose-dependent manner
- degradation of c-ABL protein in vivo (c-ABL protein [3]): can also degrade BCR-ABL and c-ABL protein in a dose-dependent manner in vivo
- degradation of BCR-ABL protein in vivo (BCR-ABL protein [4]): can also degrade BCR-ABL and c-ABL protein in a dose-dependent manner in vivo
- DC50 (BCR-ABL protein [5]): 1 to 10 nM
- tumor decrease ([6]; NOD-SCID mice, 15 mg/kg): can cause tumor decrease
- growth of K562 cell transplantation tumor ([6]; NOD-SCID mice, 5, 15, 45 mg/kg, 2 weeks): can inhibit the growth of K562 cell transplantation tumor in a dose-dependent manner
- DC50 (c-ABL protein [7]): 10 to 100 nM
- IC50 (K562 (BCR-ABL+) cells): 41.3 nM
- BCR-ABL signal pathway activity in vivo (BCR-ABL signal pathway): significantly inhibit the BCR-ABL signal pathway activity
- degradation of other tyrosine kinase receptors [8]: can also degrade other tyrosine kinase receptors, such as Src protein kinase, kit, PDGFR
- IC50 (HEK293 (BCR-ABL-) cells): > 10000 nM
- IC50 (U937 (BCR-ABL-) cells): > 10000 nM
